Experimental data: patent US20260262643A1, “HERBICIDAL BENZOXAZINES” (FMC CORPORATION, priority 2022, published 2026)

How the values were obtained:
barnyardgrass [1] = assay: Test C preemergence; type: in vivo, Echinochloa crusgalli; conditions: for Barnyardgrass plant response rating: preemergence, 0 to 100 scale (0 no effect, 100 complete control)
In short: (§1)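 Soil-applied (pre) and foliar (post, 1–2 leaf, 2–10 cm) sprays; surfactant-containing non-phytotoxic solvent vehicle; loam/sand substrate. Readout: visual % control at 10 d, greenhouse, versus untreated.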

blackgrass [2] = assay: Test C preemergence; type: in vivo, Alopecurus myosuroides; conditions: for Blackgrass plant response rating: preemergence, 0 to 100 scale (0 no effect, 100 complete control)
In short: as §1

corn [3] = assay: Test C preemergence; type: in vivo, Zea mays; conditions: for Corn plant response rating: preemergence, 0 to 100 scale (0 no effect, 100 complete control)
In short: as §1

green foxtail [4] = assay: Test C preemergence; type: in vivo, Setaria viridis; conditions: for Foxtail, Green plant response rating: preemergence, 0 to 100 scale (0 no effect, 100 complete control)
In short: as §1

kochia [5] = assay: Test C preemergence; type: in vivo, Bassia scoparia; conditions: for Kochia plant response rating: preemergence, 0 to 100 scale (0 no effect, 100 complete control)
In short: as §1

oat, wild [6] = assay: Test C preemergence; type: in vivo, Avena fatua; conditions: for Oat, Wild plant response rating: preemergence, 0 to 100 scale (0 no effect, 100 complete control)
Description: (§2) Seeds of plant species selected from barnyardgrass (Echinochloa crusgalli), blackgrass (Alopecurus myosuroides), corn (Zea mays), foxtail, giant (giant foxtail, Setaria faberi), green foxtail (Setaria viridis), goosegrass (Eleusine indica), kochia (Bassia scoparia), oat, wild (wild oat, Avena fatua), pigweed, palmer (palmer amaranth, palmer pigweed, Amaranthus palmeri), Pigweed, Redroot (redroot pigweed, Amaranthus retroflexus), ragweed (common ragweed, Ambrosia artemisiifolia), ryegrass, Italian ([…] ryegrass, Lolium multiflorum), soybean (Glycine max), and wheat (Triticum aestivum) were planted into a blend of loam soil and sand and treated preemergence with a directed soil spray using test chemicals formulated in a non-phytotoxic solvent mixture which included a surfactant. At the same time, plants selected from these crops and weed species and also galium (catchweed bedstraw, Galium aparine) and horseweed (Erigeron canadensis) were planted in pots containing the same blend of loam soil and sand and treated with postemergence applications of test chemicals formulated in the same manner. Plants ranged in height from 2 to 10 cm and were in the one- to two-leaf stage for the postemergence treatment. Treated plants and untreated controls were maintained in a greenhouse for 10 days, after which time all treated plants were compared to untreated controls and visually evaluated for injury. Plant response ratings, summarized in Table C, are based on a 0 to 100 scale where 0 is no effect and 100 is complete control. A dash (-) response means no test result.

pigweed, palmer [7] = assay: Test C preemergence; type: in vivo, Amaranthus palmeri; conditions: for Pigweed, Palmer plant response rating: preemergence, 0 to 100 scale (0 no effect, 100 complete control)
In short: as §1

ragweed [8] = assay: Test C preemergence; type: in vivo, Ambrosia artemisiifolia; conditions: for Ragweed plant response rating: preemergence, 0 to 100 scale (0 no effect, 100 complete control)
In short: as §1

ryegrass, Italian [9] = assay: Test C preemergence; type: in vivo, Lolium multiflorum; conditions: for Ryegrass, Italian plant response rating: preemergence, 0 to 100 scale (0 no effect, 100 complete control)
In short: as §1

soybean [10] = assay: Test C preemergence; type: in vivo, Glycine max; conditions: for Soybean plant response rating: preemergence, 0 to 100 scale (0 no effect, 100 complete control)
Description: as §2

wheat [11] = assay: Test C preemergence; type: in vivo, Triticum aestivum; conditions: for Wheat plant response rating: preemergence, 0 to 100 scale (0 no effect, 100 complete control)
Description: as §2

barnyardgrass [12] = assay: Test C postemergence; type: in vivo, Echinochloa crusgalli; conditions: 10 days
In short: as §1

blackgrass [13] = assay: Test C postemergence; type: in vivo, Alopecurus myosuroides; conditions: 10 days
In short: as §1

corn [14] = assay: Test C postemergence; type: in vivo, Zea mays; conditions: 10 days
In short: as §1

green foxtail [15] = assay: Test C postemergence; type: in vivo, Setaria viridis; conditions: 10 days
In short: as §1

kochia [16] = assay: Test C postemergence; type: in vivo, Bassia scoparia; conditions: 10 days
In short: as §1

oat, wild [17] = assay: Test C postemergence; type: in vivo, Avena fatua; conditions: 10 days
Description: as §2

pigweed, palmer [18] = assay: Test C postemergence; type: in vivo, Amaranthus palmeri; conditions: 10 days
In short: as §1

ragweed [19] = assay: Test C postemergence; type: in vivo, Ambrosia artemisiifolia; conditions: 10 days
In short: as §1

ryegrass, Italian [20] = assay: Test C postemergence; type: in vivo, Lolium multiflorum; conditions: 10 days
In short: as §1

soybean [21] = assay: Test C postemergence; type: in vivo, Glycine max; conditions: postemergence, 10 days
Description: as §2

wheat [22] = assay: Test C postemergence; type: in vivo, Triticum aestivum; conditions: 10 days
Description: as §2

galium = assay: Test C postemergence; type: in vivo, Galium aparine; conditions: 10 days
In short: as §1

horseweed = assay: Test C postemergence; type: in vivo, Erigeron canadensis; conditions: 10 days
In short: as §1

[23] = 125 g ai/ha, postemergence, 0 to 100 scale, 0 no effect, 100 complete control
[24] = 500 g ai/ha, postemergence, 0 to 100 scale (0 no effect, 100 complete control)
[25] = 500 g ai/ha, 0 to 100 scale (0 no effect, 100 complete control)
[26] = Preemergence, 125 g ai/ha, 0 to 100 scale, 0 no effect, 100 complete control
[27] = Postemergence, 125 g ai/ha, 0 to 100 scale (0 no effect, 100 complete control)

COC(=O)N(C)c1ncn(-c2cccc(C(=O)N3C[C@H](C)Oc4c(C)cccc43)c2)n1 [30 0]
Barnyardgrass plant response rating (barnyardgrass [1]; 500 g ai/ha): 50 | Barnyardgrass plant response rating (barnyardgrass [1]; Test C, 125 g ai/ha): 0 | Blackgrass plant response rating (blackgrass [2]; 500 g ai/ha): 20 | Blackgrass plant response rating (blackgrass [2]; Test C, 125 g ai/ha): 0 | Corn plant response rating (corn [3]; 500 g ai/ha): 10 | Corn plant response rating (corn [3]; Test C, 125 g ai/ha): 0 | Foxtail, Green plant response rating (green foxtail [4]; 500 g ai/ha): 100 | Foxtail, Green plant response rating (green foxtail [4]; Test C, 125 g ai/ha): 80 | Kochia plant response rating (kochia [5]; 500 g ai/ha): 70 | Kochia plant response rating (kochia [5]; Test C, 125 g ai/ha): 50 | Oat, Wild plant response rating (oat, wild [6]; 500 g ai/ha): 30 | Oat, Wild plant response rating (oat, wild [6]; Test C, 125 g ai/ha): 20 | Pigweed, Palmer plant response rating (pigweed, palmer [7]; 500 g ai/ha): 80 | Pigweed, Palmer plant response rating (pigweed, palmer [7]; Test C, 125 g ai/ha): 20 | Ragweed plant response rating (ragweed [8]; 500 g ai/ha): 20 | Ragweed plant response rating (ragweed [8]; Test C, 125 g ai/ha): 0 | Ryegrass, Italian plant response rating (ryegrass, Italian [9]; 500 g ai/ha): 80 | Ryegrass, Italian plant response rating (ryegrass, Italian [9]; Test C, 125 g ai/ha): 60 | Soybean plant response rating (soybean [10]; 500 g ai/ha): 20 | Soybean plant response rating (soybean [10]; Test C, 125 g ai/ha): 0 | Wheat plant response rating (wheat [11]; 500 g ai/ha): 20 | Wheat plant response rating (wheat [11]; Test C, 125 g ai/ha): 0 | Plant response rating, Barnyardgrass (barnyardgrass [12]; [23]): 10 | Plant response rating, Barnyardgrass (barnyardgrass [12]; [24]): 50 | Plant response rating, Blackgrass (blackgrass [13]; [23]): 0 | Plant response rating, Blackgrass (blackgrass [13]; [24]): 80 | Plant response rating, Corn (corn [14]; [23]): 0 | Plant response rating, Corn (corn [14]; [24]): 70 | Plant response rating, Foxtail, Green (green foxtail [15]; [23]): 10 | Plant response rating, Foxtail, Green (green foxtail [15]; [24]): 50 | Plant response rating, Kochia (kochia [16]; [23]): 50 | Plant response rating, Kochia (kochia [16]; [24]): 60 | Plant response rating, Oat, Wild (oat, wild [17]; [23]): 0 | Plant response rating, Oat, Wild (oat, wild [17]; [24]): 40 | Plant response rating, Pigweed, Palmer (pigweed, palmer [18]; [23]): 30 | Plant response rating, Pigweed, Palmer (pigweed, palmer [18]; [24]): 40 | Plant response rating, Ragweed (ragweed [19]; [23]): 0 | Plant response rating, Ragweed (ragweed [19]; [24]): 50 | Plant response rating, Ryegrass, Italian (ryegrass, Italian [20]; [23]): 10 | Plant response rating, Ryegrass, Italian (ryegrass, Italian [20]; [24]): 80 | Plant response rating, Soybean (soybean [21]; 125 g ai/ha, 0 to 100 scale, 0 no effect, 100 complete control): 70 | Plant response rating, Soybean (soybean [21]; [25]): 100 | Plant response rating, Wheat (wheat [22]; [23]): 10 | Plant response rating, Wheat (wheat [22]; [24]): 30 | Plant response rating, Galium (galium; [23]): 60 | Plant response rating, Galium (galium; [24]): 90 | Plant response rating, Horseweed (horseweed; [23]): 30 | Plant response rating, Horseweed (horseweed; [24]): 30

CC(C)c1ncn(-c2ccc(OS(=O)(=O)C(F)(F)F)c(C(=O)N3C[C@H](C)Oc4c(Cl)cccc43)c2)n1 [Compound 339]
Barnyardgrass plant response rating (barnyardgrass [1]; 500 g ai/ha): 0 | Plant response rating, Barnyardgrass (barnyardgrass [1]; [26]): 0 | Blackgrass plant response rating (blackgrass [2]; 500 g ai/ha): 0 | Plant response rating, Blackgrass (blackgrass [2]; [26]): 0 | Corn plant response rating (corn [3]; 500 g ai/ha): 0 | Plant response rating, Corn (corn [3]; [26]): 0 | Foxtail, Green plant response rating (green foxtail [4]; 500 g ai/ha): 0 | Plant response rating, Foxtail, Green (green foxtail [4]; [26]): 0 | Kochia plant response rating (kochia [5]; 500 g ai/ha): 50 | Plant response rating, Kochia (kochia [5]; [26]): 0 | Oat, Wild plant response rating (oat, wild [6]; 500 g ai/ha): 0 | Plant response rating, Oat, Wild (oat, wild [6]; [26]): 0 | Pigweed, Palmer plant response rating (pigweed, palmer [7]; 500 g ai/ha): 0 | Plant response rating, Pigweed, Palmer (pigweed, palmer [7]; [26]): 0 | Ragweed plant response rating (ragweed [8]; 500 g ai/ha): 0 | Plant response rating, Ragweed (ragweed [8]; [26]): 0 | Ryegrass, Italian plant response rating (ryegrass, Italian [9]; 500 g ai/ha): 80 | Plant response rating, Ryegrass, Italian (ryegrass, Italian [9]; [26]): 20 | Soybean plant response rating (soybean [10]; 500 g ai/ha): 0 | Plant response rating, Soybean (soybean [10]; [26]): 0 | Wheat plant response rating (wheat [11]; 500 g ai/ha): 0 | Plant response rating, Wheat (wheat [11]; [26]): 0 | Plant response rating, Barnyardgrass (barnyardgrass [12]; [24]): 10 | Plant response rating, Barnyardgrass (barnyardgrass [12]; [27]): 10 | Plant response rating, Blackgrass (blackgrass [13]; [24]): 0 | Plant response rating, Blackgrass (blackgrass [13]; [27]): 0 | Plant response rating, Corn (corn [14]; [24]): 0 | Plant response rating, Corn (corn [14]; [27]): 0 | Plant response rating, Foxtail, Green (green foxtail [15]; [24]): 10 | Plant response rating, Foxtail, Green (green foxtail [15]; [27]): 0 | Plant response rating, Kochia (kochia [16]; [24]): 60 | Plant response rating, Kochia (kochia [16]; [27]): 30 | Plant response rating, Oat, Wild (oat, wild [17]; [24]): 0 | Plant response rating, Oat, Wild (oat, wild [17]; [27]): 0 | Plant response rating, Pigweed, Palmer (pigweed, palmer [18]; [24]): 70 | Plant response rating, Pigweed, Palmer (pigweed, palmer [18]; [27]): 50 | Plant response rating, Ragweed (ragweed [19]; [24]): 10 | Plant response rating, Ragweed (ragweed [19]; [27]): 0 | Plant response rating, Ryegrass, Italian (ryegrass, Italian [20]; [24]): 20 | Plant response rating, Ryegrass, Italian (ryegrass, Italian [20]; [27]): 0 | Plant response rating, Soybean (soybean [21]; [25]): 20 | Plant response rating, Wheat (wheat [22]; [24]): 0 | Plant response rating, Wheat (wheat [22]; [27]): 0 | Plant response rating, Galium (galium; [24]): 50 | Plant response rating, Galium (galium; [27]): 60 | Plant response rating, Horseweed (horseweed; [24]): 10 | Plant response rating, Horseweed (horseweed; [27]): 0
